Each structure is given as a SMILES string. Where “and” joins values, the source holds several entries; their conditions need not be identical. Identical values can stand only once. Inconclusive results are not listed.

Consider 13 compounds from PubChem BioAssay AID212 (DTP/NCI, 2004).

This test concerns BDF1 mice, colon carcinoma 38 sc, T/C %. As to the kind of experiment: NCI In Vivo Anticancer Drug Screen. Data for tumor model Colon Carcinoma 38 (subcutaneous) in B6D2F1 (BDF1) mice. In a few lines:
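Ratio of survival or tumor size, compound-treated animals relative to vehicle controls, in tumor-bearing mice.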

Setting [1] is: endpoint: median tumor weight (est.), dose: 8.0 mg/kg/injection, schedule: Q07DX003 (ip), vehicle: saline with Tween-80, higher = larger tumour.
Setting [2] is: endpoint: median tumor weight (est.), dose: 32.0 mg/kg/injection, schedule: Q07DX003 (ip), vehicle: saline with Tween-80, higher = larger tumour.
Where [3] appears, read: endpoint: median tumor weight (est.), dose: 64.0 mg/kg/injection, schedule: Q07DX003 (ip), vehicle: saline with Tween-80, higher = larger tumour.
[4] abbreviates: endpoint: median tumor weight (est.), dose: 12.5 mg/kg/injection, schedule: Q07DX002 (ip), vehicle: Klucel (hydroxypropylcellulose) (HPC), higher = larger tumour.
The mark [5] stands for this setting: endpoint: median tumor weight (est.), dose: 200.0 mg/kg/injection, schedule: Q07DX002 (ip), vehicle: Klucel (hydroxypropylcellulose) (HPC), higher = larger tumour.
[6] abbreviates: endpoint: median tumor weight (est.), dose: 25.0 mg/kg/injection, schedule: Q07DX002 (ip), vehicle: Klucel (hydroxypropylcellulose) (HPC), higher = larger tumour.
Setting [7] is: endpoint: median tumor weight (est.), dose: 50.0 mg/kg/injection, schedule: Q07DX002 (ip), vehicle: Klucel (hydroxypropylcellulose) (HPC), higher = larger tumour.
[8] abbreviates: endpoint: median tumor weight (est.), dose: 100.0 mg/kg/injection, schedule: Q07DX002 (ip), vehicle: Klucel (hydroxypropylcellulose) (HPC), higher = larger tumour.

For the compound `O=C(CN1CCOCC1)Nc1nc(-c2ccc(Cl)cc2)cs1`, the T/C reads like this: (endpoint: median tumor weight (est.), dose: 50.0 mg/kg/injection, schedule: Q07DX002 (ip), vehicle: DMSO, higher = larger tumour) 224 % of control; (endpoint: median tumor weight (est.), dose: 100.0 mg/kg/injection, schedule: Q07DX002 (ip), vehicle: DMSO, higher = larger tumour) 292 % of control; (endpoint: median tumor weight (est.), dose: 200.0 mg/kg/injection, schedule: Q07DX002 (ip), vehicle: DMSO, higher = larger tumour) 247 % of control; (endpoint: median tumor weight (est.), dose: 400.0 mg/kg/injection, schedule: Q07DX002 (ip), vehicle: DMSO, higher = larger tumour) 234 % of control.
As for `CC1=C(/C=C/C(C)=C/C=C/C(C)=C/CO)C(C)(C)CCC1`, the T/C is, setting by setting: under setting [1], 113 % of control and 106 % of control; under setting [2], 194 % of control; under setting [3], 111 % of control and 122 % of control.
Turning to `CCCCCCCC(=O)N/N=C(\CO)[C@]1(O)Cc2c(O)c3c(c(O)c2[C@@H](OC2CC(N)C(O)C(C)O2)C1)C(=O)c1c(OC)cccc1C3=O` (some centres undefined), the T/C reads like this: (endpoint: median survival time, dose: 30.0 mg/kg/injection, schedule: Q07DX002 (sc), vehicle: saline, higher = longer survival) 100 % of control; (endpoint: median survival time, dose: 48.0 mg/kg/injection, schedule: Q07DX002 (sc), vehicle: saline, higher = longer survival) 75 % of control; (endpoint: median survival time, dose: 126.0 mg/kg/injection, schedule: Q07DX002 (sc), vehicle: saline, higher = longer survival) 105 % of control; (endpoint: median tumor weight (est.), dose: 6.75 mg/kg/injection, schedule: Q07DX002 (ip), vehicle: distilled water + Tween-80, higher = larger tumour) 84 % of control; (endpoint: median tumor weight (est.), dose: 6.75 mg/kg/injection, schedule: Q07DX002 (ip), vehicle: suspension in saline, higher = larger tumour) 97 % of control; (endpoint: median tumor weight (est.), dose: 13.5 mg/kg/injection, schedule: Q07DX002 (ip), vehicle: suspension in saline, higher = larger tumour) 73 % of control. Besides, the T/C runs as follows: (endpoint: median tumor weight (est.), dose: 27.0 mg/kg/injection, schedule: Q07DX002 (ip), vehicle: suspension in saline, higher = larger tumour) 101 % of control; (endpoint: median tumor weight (est.), dose: 54.0 mg/kg/injection, schedule: Q07DX002 (ip), vehicle: distilled water + Tween-80, higher = larger tumour) 18 % of control and 41 % of control; (endpoint: median tumor weight (est.), dose: 54.0 mg/kg/injection, schedule: Q07DX002 (ip), vehicle: suspension in saline, higher = larger tumour) 58 % of control.
`COc1ccc(S(=O)(=O)N/N=C/C(=O)O)cc1`: the T/C was 82 % of control (endpoint: median tumor weight (est.), dose: 6.25 mg/kg/injection, schedule: Q07DX002 (ip), vehicle: saline with Tween-80, higher = larger tumour); 96 % of control and 104 % of control (endpoint: median tumor weight (est.), dose: 25.0 mg/kg/injection, schedule: Q07DX002 (ip), vehicle: saline with Tween-80, higher = larger tumour); 117 % of control and 100 % of control (endpoint: median tumor weight (est.), dose: 50.0 mg/kg/injection, schedule: Q07DX002 (ip), vehicle: saline with Tween-80, higher = larger tumour); 87 % of control and 95 % of control (endpoint: median tumor weight (est.), dose: 200.0 mg/kg/injection, schedule: Q07DX002 (ip), vehicle: saline with Tween-80, higher = larger tumour).
As to `CC(=O)[O][Pb]([O]C(C)=O)([c]1ccccc1)[c]1ccccc1`, the T/C under setting [4] is 216 % of control and the T/C under setting [5] is 72 % of control.
Regarding `CC(=O)OCC1OC(OC2=C(CC=C(C)C)C(=O)c3ccccc3C2=O)C(OC(C)=O)C(OC(C)=O)C1OC(C)=O` (centres undefined), the T/C is 205 % of control and 81 % of control under setting [4]; 181 % of control under setting [6]; 113 % of control and 103 % of control under setting [7]; 151 % of control under setting [8]; 190 % of control under setting [5].
On to `CCC(C(=O)O)C(=O)O.[NH-]CC1CCCC[N-]1.[Pt+2]`, for which the T/C reads like this: (endpoint: median tumor weight (est.), dose: 25.0 mg/kg/injection, schedule: Q07DX002 (ip), vehicle: saline, higher = larger tumour) 305 % of control; (endpoint: median tumor weight (est.), dose: 50.0 mg/kg/injection, schedule: Q07DX002 (ip), vehicle: saline, higher = larger tumour) 404 % of control; (endpoint: median tumor weight (est.), dose: 100.0 mg/kg/injection, schedule: Q07DX002 (ip), vehicle: saline, higher = larger tumour) 209 % of control; (endpoint: median tumor weight (est.), dose: 200.0 mg/kg/injection, schedule: Q07DX002 (ip), vehicle: saline, higher = larger tumour) 239 % of control.
`COCC1OC2OC3C(COC)OC(OC4C(COC)OC(OC5C(COC)OC(OC6C(COC)OC(OC7C(COC)OC(OC8C(COC)OC(OC1C(O)C2O)C(O)C8O)C(O)C7O)C(O)C6O)C(O)C5O)C(O)C4O)C(O)C3O` (centres undefined) (tested in a mixture with another compound): the T/C runs as follows: under setting [6], 72 % of control; under setting [7], 68 % of control; under setting [8], 53 % of control; under setting [5], 69 % of control; (endpoint: median tumor weight (est.), dose: 400.0 mg/kg/injection, schedule: Q07DX002 (ip), vehicle: Klucel (hydroxypropylcellulose) (HPC), higher = larger tumour) 95 % of control.
For the compound `CC1=C(/C=C/C(C)=C/C=C/C(C)=C/C(=O)O)C(C)(C)CCC1`, the T/C runs as follows: (endpoint: median tumor weight (est.), dose: 3.12 mg/kg/injection, schedule: Q07DX003 (ip), vehicle: saline with Tween-80, higher = larger tumour) 87 % of control; (endpoint: median tumor weight (est.), dose: 6.25 mg/kg/injection, schedule: Q07DX003 (ip), vehicle: saline with Tween-80, higher = larger tumour) 96 % of control; under setting [1], 103 % of control; (endpoint: median tumor weight (est.), dose: 12.5 mg/kg/injection, schedule: Q07DX003 (ip), vehicle: saline with Tween-80, higher = larger tumour) 99 % of control; (endpoint: median tumor weight (est.), dose: 25.0 mg/kg/injection, schedule: Q07DX003 (ip), vehicle: saline with Tween-80, higher = larger tumour) 100 % of control; under setting [2], 98 % of control. For the same compound, the T/C under setting [3] was 102 % of control.
For the compound `NCCCC(N)(C(=O)O)C(F)F` (centres undefined), the T/C was 124 % of control (endpoint: median tumor weight (est.), dose: 100.0 mg/kg/injection, schedule: Q07DX002 (ip), vehicle: distilled water + alcohol, higher = larger tumour); 107 % of control (endpoint: median tumor weight (est.), dose: 200.0 mg/kg/injection, schedule: Q07DX002 (ip), vehicle: distilled water + alcohol, higher = larger tumour); 113 % of control and 124 % of control (endpoint: median tumor weight (est.), dose: 400.0 mg/kg/injection, schedule: Q07DX002 (ip), vehicle: distilled water + alcohol, higher = larger tumour); 124 % of control (endpoint: median tumor weight (est.), dose: 800.0 mg/kg/injection, schedule: Q07DX002 (ip), vehicle: distilled water + alcohol, higher = larger tumour); 123 % of control and 100 % of control (endpoint: median tumor weight (est.), dose: 1600.0 mg/kg/injection, schedule: Q07DX002 (ip), vehicle: distilled water + alcohol, higher = larger tumour).
With `N#CN=[N+]([O-])c1ccc(C(=O)O)cc1`, the T/C runs as follows: (endpoint: median tumor weight (est.), dose: 3.75 mg/kg/injection, schedule: Q07DX002 (ip), vehicle: Klucel (hydroxypropylcellulose) (HPC), higher = larger tumour) 117 % of control and 123 % of control; (endpoint: median tumor weight (est.), dose: 7.5 mg/kg/injection, schedule: Q07DX002 (ip), vehicle: Klucel (hydroxypropylcellulose) (HPC), higher = larger tumour) 124 % of control; (endpoint: median tumor weight (est.), dose: 15.0 mg/kg/injection, schedule: Q07DX002 (ip), vehicle: Klucel (hydroxypropylcellulose) (HPC), higher = larger tumour) 87 % of control; (endpoint: median tumor weight (est.), dose: 60.0 mg/kg/injection, schedule: Q07DX002 (ip), vehicle: Klucel (hydroxypropylcellulose) (HPC), higher = larger tumour) 159 % of control.
Consider `CCCCCCCCSC1=C(Cl)C(=O)C(OC)=C(OC)C1=O`, for which, under “endpoint: median tumor weight (est.), dose: 1.56 mg/kg/injection, schedule: Q07DX002 (ip), vehicle: saline with Tween-80, higher = larger tumour”, the T/C was 94 % of control and 95 % of control.
As to `ClCC[Se](Cl)(Cl)c1ccccc1`, the T/C runs as follows: (endpoint: median tumor weight (est.), dose: 1.56 mg/kg/injection, schedule: Q07DX002 (ip), vehicle: saline, higher = larger tumour) 84 % of control; (endpoint: median tumor weight (est.), dose: 1.56 mg/kg/injection, schedule: Q07DX002 (ip), vehicle: suspension in saline, higher = larger tumour) 83 % of control; (endpoint: median tumor weight (est.), dose: 3.12 mg/kg/injection, schedule: Q07DX002 (ip), vehicle: saline, higher = larger tumour) 96 % of control; (endpoint: median tumor weight (est.), dose: 6.25 mg/kg/injection, schedule: Q07DX002 (ip), vehicle: saline, higher = larger tumour) 105 % of control; (endpoint: median tumor weight (est.), dose: 6.25 mg/kg/injection, schedule: Q07DX002 (ip), vehicle: suspension in saline, higher = larger tumour) 88 % of control; (endpoint: median tumor weight (est.), dose: 12.5 mg/kg/injection, schedule: Q07DX002 (ip), vehicle: saline, higher = larger tumour) 90 % of control.
